{"source": "ChEMBL document CHEMBL1201862", "about": "“PubChem BioAssay data set” (2004)", "experiment_in_all_cases": "DTP human tumour cell line panel, 48 h", "key": {"Hs-578T": {"test_system": "Hs-578T"}, "BT-549": {"test_system": "BT-549"}, "SF-295": {"test_system": "SF-295"}, "SNB-19": {"test_system": "SNB-19"}, "SF-268": {"test_system": "SF-268"}, "786-0": {"test_system": "786-0"}, "RXF 393": {"test_system": "RXF 393"}, "A549": {"test_system": "A549"}, "SK-MEL-5": {"test_system": "SK-MEL-5"}, "T47D": {"test_system": "T47D"}, "MDA-MB-435": {"test_system": "MDA-MB-435"}, "KM12": {"test_system": "KM12"}, "HOP-92": {"test_system": "HOP-92"}, "K562": {"test_system": "K562"}, "UO-31": {"test_system": "UO-31"}, "SK-MEL-2": {"test_system": "SK-MEL-2"}, "Malme-3M": {"test_system": "Malme-3M"}, "COLO 205": {"test_system": "COLO 205"}, "SK-MEL-28": {"test_system": "SK-MEL-28"}, "M14": {"test_system": "M14"}, "UACC-62": {"test_system": "UACC-62"}, "U-251": {"test_system": "U-251"}, "OVCAR-5": {"test_system": "OVCAR-5"}, "MDA-N": {"test_system": "MDA-N"}, "MOLT-4": {"test_system": "MOLT-4"}, "EKVX": {"test_system": "EKVX"}, "NCI/ADR-RES": {"test_system": "NCI/ADR-RES"}, "HL-60": {"test_system": "HL-60"}, "HT-29": {"test_system": "HT-29"}, "IGROV-1": {"test_system": "IGROV-1"}, "SK-OV-3": {"test_system": "SK-OV-3"}, "SNB-75": {"test_system": "SNB-75"}, "HCT-15": {"test_system": "HCT-15"}, "DU-145": {"test_system": "DU-145"}, "PC-3": {"test_system": "PC-3"}, "CAKI-1": {"test_system": "CAKI-1"}, "OVCAR-8": {"test_system": "OVCAR-8"}, "NCI-H226": {"test_system": "NCI-H226"}, "NCI-H522": {"test_system": "NCI-H522"}, "SR": {"test_system": "SR"}, "HOP-62": {"test_system": "HOP-62"}, "LOX IMVI": {"test_system": "LOX IMVI"}, "HCC 2998": {"test_system": "HCC 2998"}, "SF-539": {"test_system": "SF-539"}, "TK-10": {"test_system": "TK-10"}, "OVCAR-4": {"test_system": "OVCAR-4"}, "RPMI-8226": {"test_system": "RPMI-8226"}, "CCRF-CEM": {"test_system": "CCRF-CEM"}, "HCT-116": {"test_system": "HCT-116"}, "NCI-H23": {"test_system": "NCI-H23"}, "MCF7": {"test_system": "MCF7"}, "OVCAR-3": {"test_system": "OVCAR-3"}, "MDA-MB-231": {"test_system": "MDA-MB-231"}, "SW-620": {"test_system": "SW-620"}, "ACHN": {"test_system": "ACHN"}, "SN12C": {"test_system": "SN12C"}, "UACC-257": {"test_system": "UACC-257"}}, "note": "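Cultured in 96-well plates, cells were exposed to test compound for 48 hours across five concentrations. The concentration for 50% growth inhibition is given as GI50.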 Activity calls are given as the source filed them. Cut-off read from the data, not from the text of the source: active = GI50 up to about 1.1 µM and inactive = higher."}
{"smiles": "CC1(c2nc3ccccc3[nH]2)CCC(C(=O)O)C(C)(C)O1", "note": "(configuration not stated)", "values": [{"measurement": "GI50", "setting": "Hs-578T", "value": "> 100 µM (inactive)"}, {"measurement": "GI50", "setting": "BT-549", "value": "> 100 µM (inactive)"}, {"measurement": "GI50", "setting": "SF-295", "value": "> 100 µM (inactive)"}, {"measurement": "GI50", "setting": "SNB-19", "value": "> 100 µM (inactive)"}, {"measurement": "GI50", "setting": "SF-268", "value": "> 100 µM (inactive)"}, {"measurement": "GI50", "setting": "786-0", "value": "> 100 µM (inactive)"}, {"measurement": "GI50", "setting": "RXF 393", "value": "> 100 µM (inactive)"}, {"measurement": "GI50", "setting": "A549", "value": "> 100 µM (inactive)"}, {"measurement": "GI50", "setting": "SK-MEL-5", "value": "> 100 µM (inactive)"}, {"measurement": "GI50", "setting": "T47D", "value": "> 100 µM (inactive)"}, {"measurement": "GI50", "setting": "MDA-MB-435", "value": "> 100 µM (inactive)"}, {"measurement": "GI50", "setting": "KM12", "value": "26.5 µM (inactive)"}, {"measurement": "GI50", "setting": "HOP-92", "value": "> 100 µM (inactive)"}, {"measurement": "GI50", "setting": "K562", "value": "> 100 µM (inactive)"}, {"measurement": "GI50", "setting": "UO-31", "value": "> 100 µM (inactive)"}, {"measurement": "GI50", "setting": "SK-MEL-2", "value": "> 100 µM (inactive)"}, {"measurement": "GI50", "setting": "Malme-3M", "value": "> 100 µM (inactive)"}, {"measurement": "GI50", "setting": "COLO 205", "value": "> 100 µM (inactive)"}, {"measurement": "GI50", "setting": "SK-MEL-28", "value": "> 100 µM (inactive)"}, {"measurement": "GI50", "setting": "M14", "value": "> 100 µM (inactive)"}, {"measurement": "GI50", "setting": "UACC-62", "value": "> 100 µM (inactive)"}, {"measurement": "GI50", "setting": "U-251", "value": "> 100 µM (inactive)"}, {"measurement": "GI50", "setting": "OVCAR-5", "value": "> 100 µM (inactive)"}, {"measurement": "GI50", "setting": "MDA-N", "value": "> 100 µM (inactive)"}, {"measurement": "GI50", "setting": "MOLT-4", "value": "> 100 µM (inactive)"}, {"measurement": "GI50", "setting": "EKVX", "value": "> 100 µM (inactive)"}, {"measurement": "GI50", "setting": "NCI/ADR-RES", "value": "> 100 µM (inactive)"}, {"measurement": "GI50", "setting": "HL-60", "value": "> 100 µM (inactive)"}, {"measurement": "GI50", "setting": "HT-29", "value": "> 100 µM (inactive)"}, {"measurement": "GI50", "setting": "IGROV-1", "value": "> 100 µM (inactive)"}, {"measurement": "GI50", "setting": "SK-OV-3", "value": "> 100 µM (inactive)"}, {"measurement": "GI50", "setting": "SNB-75", "value": "39.8 µM (inactive)"}, {"measurement": "GI50", "setting": "HCT-15", "value": "> 100", "unit": "µM"}, {"measurement": "GI50", "setting": "DU-145", "value": "> 100 µM (inactive)"}, {"measurement": "GI50", "setting": "PC-3", "value": "> 100 µM (inactive)"}, {"measurement": "GI50", "setting": "CAKI-1", "value": "> 100 µM (inactive)"}, {"measurement": "GI50", "setting": "OVCAR-8", "value": "> 100 µM (inactive)"}, {"measurement": "GI50", "setting": "NCI-H226", "value": "> 100 µM (inactive)"}, {"measurement": "GI50", "setting": "NCI-H522", "value": "> 100 µM (inactive)"}, {"measurement": "GI50", "setting": "SR", "value": "> 100 µM (inactive)"}, {"measurement": "GI50", "setting": "HOP-62", "value": "> 100 µM (inactive)"}, {"measurement": "GI50", "setting": "LOX IMVI", "value": "> 100 µM (inactive)"}, {"measurement": "GI50", "setting": "HCC 2998", "value": "> 100 µM (inactive)"}, {"measurement": "GI50", "setting": "SF-539", "value": "> 100 µM (inactive)"}, {"measurement": "GI50", "setting": "TK-10", "value": "> 100 µM (inactive)"}, {"measurement": "GI50", "setting": "OVCAR-4", "value": "> 100 µM (inactive)"}, {"measurement": "GI50", "setting": "RPMI-8226", "value": "> 100 µM (inactive)"}, {"measurement": "GI50", "setting": "CCRF-CEM", "value": "> 100 µM (inactive)"}, {"measurement": "GI50", "setting": "HCT-116", "value": "> 100 µM (inactive)"}, {"measurement": "GI50", "setting": "NCI-H23", "value": "> 100 µM (inactive)"}, {"measurement": "GI50", "setting": "MCF7", "value": "> 100 µM (inactive)"}, {"measurement": "GI50", "setting": "OVCAR-3", "value": "> 100 µM (inactive)"}, {"measurement": "GI50", "setting": "MDA-MB-231", "value": "> 100 µM (inactive)"}, {"measurement": "GI50", "setting": "SW-620", "value": "> 100 µM (inactive)"}, {"measurement": "GI50", "setting": "ACHN", "value": "> 100 µM (inactive)"}, {"measurement": "GI50", "setting": "SN12C", "value": "> 100 µM (inactive)"}, {"measurement": "GI50", "setting": "UACC-257", "value": "> 100 µM (inactive)"}]}
